Reference: US20230391765A1, “HETEROBIFUNCTIONAL COMPOUNDS AS DEGRADERS OF ENL” (ICAHN SCHOOL OF MEDICINE AT MOUNT SINAI, priority 2020, published 2023)

How the values were obtained:
ENL target genes = experiment: RT-qPCR of ENL target genes in MOLM13 cells; format: cell-based; conditions: MOLM13 cells, 8 μM for 24 h
Experimental: MOLM13 cells were treated with LQ076-122 (FIG. 14A) and LQ081-108 (FIG. 14B) at 0.5, 1, 2, 4, and 8 μM for 24 h. […] RT-qPCR analysis was performed to detect the mRNA levels of selected ENL target genes.
Total RNA was extracted using the RNeasy Plus kit (Qiagen) and reverse-transcribed using the iScript cDNA Synthesis kit (Bio-Rad). RT-qPCR was performed using the Power SYBR Green PCR Master Mix (Applied Biosystems) on the CFX96 Real-Time PCR system (Bio-Rad). Gene expressions were calculated following normalization to 18s rRNA amounts using the comparative cycle threshold (Ct) method.

MV4; 11 cells = experiment: Apoptosis assay (FITC Annexin V), MV4; 11 cells; format: cell-based; conditions: 11 cells, 1, 2 and 4 μM for 24 h
Experimental: (§1) Apoptotic cells were measured by the FITC Annexin V Apoptosis Detection Kit (BD Biosciences).
(§2) MV4; 11 or MOLM13 cells were seeded at 0.2×10^6 cells/mL density. Cells were treated with DMSO or ENL degraders at indicated concentrations. Each treatment was done in triplicates. After 24 h treatment, cells were collected and washed with ice-cold PBS once and resuspended in 250 μL of 1× binding buffer containing 5 μL of FITC-Annexin V and PI (BD Biosciences). After 15 min incubation at room temperature in the dark, 250 μL of 1× binding buffer was added and flow cytometry analysis was performed.

MOLM13 cells = experiment: Apoptosis assay (FITC Annexin V), MOLM13 cells; format: cell-based; conditions: MOLM13 cells, 1, 2 and 4 μM for 24 h
Experimental: as §1, §2

[1] = test system: ENL-dependent MLL-rearranged leukemia cells; conditions: cited from earlier work

C[C@H]1CCCN1Cc1nc2cc(NC(=O)c3ccc4c(cnn4C)c3)ccc2[nH]1 [SGC-iMLLT, reference compound]
ENL target gene expression (mRNA levels) (ENL target genes): did not dramatically affect these genes | induction of apoptosis (MV4; 11 cells): but not the negative control compound LQ108-4 or SGC-iMLLT, induced apoptosis | induction of apoptosis (MOLM13 cells): but not the negative control compound LQ108-4 or SGC-iMLLT, induced apoptosis | inhibition of cell growth [1]: largely ineffective in inhibiting the growth
